Series [1] deals with Artemia salina. As to the kind of experiment: Artemia salina toxicity test. The following applies: 24 h; for effect on A. salina nauplii survival: 30 to 120 µM; for IC50: Artemia salina, estimated. As for the experimental part: Artemia salina (brine shrimp) survival was determined after incubation with CP and its analogues following the method described by Magalhães et al.. A. salina cysts were purchased from a local aquarium store and hatched (0.5 g cysts/L) in modified artificial seawater (35 g/L sea salt) supplemented with dried yeast (6 mg/L). Aeration was provided using an aquarium air pump connected to a line extending to the bottom of the hatching vessel. After 2 days incubation (in a 23–25 °C room), nauplii were collected using a Pasteur pipette after attracting the organisms to one side of the vessel with a light source. Test compounds were serially diluted 2-fold (ranging from 30 to 120 µM) in 96-well microplates containing 100 µL of 0.9% NaCl solution with dried yeast (6 mg/L). All experiments were performed in quadruplicate with a final DMSO concentration of 2.5%. Vehicle control wells (with 2.5% DMSO) were included in the experiment. A suspension containing 8–12 nauplii in 100 µL was added to each well, and the plates were incubated at 23–25 °C for 24 h. The number of live and dead (non-motile) nauplii in each well was then counted under a microscope. Nauplii were considered dead if they remained immobile for 10 s under light exposure. The survival percentage for each test group was calculated relative to the control group (2.5% DMSO), which was set as 100%.

Series [2] deals with Vero E6 cells. Description: Cytotoxicity on Vero E6 cells (MTT). The series is classed as cell-based, monkey. The following applies: 24 h; for effect on Vero E6 cell viability: 30 to 120 µM, MTT; for IC50: Primates, Vero C1008, estimated. How it is done:
Cytotoxicity was evaluated using the MTT method. For this purpose, two cell lines were tested: Vero E6 and HepG2. Both cell lines were seeded at 1 × 10^4 cells/well in 96-well microtiter plates and incubated overnight to adhere. The culture medium was carefully aspirated and replaced with 100 µL DMEM plus 100 µL of test compound solutions (CP, CA, and DE), yielding final concentrations ranging from 30 to 120 µM (1% DMSO, v/v). Cells were incubated with test compounds for 24 h at 37 °C in a 5% CO2 atmosphere. MTT solution (0.5 mg/mL) was subsequently added, and cells were incubated for an additional 3 h. The resulting formazan crystals were dried at room temperature for 24 h and dissolved in DMSO. Absorbance was measured at 570 nm (microplate reader EL800, BioTek, Winooski, VT, USA). Cell viability was calculated as previously described in the RAW 264.7 cell viability assay section.

Series [3] relates to Mycobacterium smegmatis mc2155. Description: M. smegmatis susceptibility by CFU enumeration. The following applies: 24 h incubation, CFU. It counts as cell-based.
Series [4] has as its system RAW 264.7 cells. As to the kind of experiment: Direct effects on RAW 264.7 cell viability (MTT). The series is classed as cell-based, murine. As for the experimental part:
The direct effects of CP and its analogues on RAW 264.7 viability were evaluated using the MTT method. RAW 264.7 cells were seeded at 1 × 10^4 cells/well (for 24 h incubation) and 5 × 10^3 cells/well (for 48 h incubation) and incubated overnight to allow adhesion. The culture medium was carefully aspirated and replaced with 100 μL DMEM plus 100 μL of test compound solutions, yielding final concentrations ranging from 3.25 to 30 µM (DMSO 1%, v/v). After 24 or 48 h of exposure to test compounds, cells were incubated with MTT (0.5 mg/mL) for 3 h. The resulting formazan crystals were dried, dissolved in DMSO, and absorbance was measured at 570 nm using a microplate reader (EL800, BioTek, Winooski, VT, USA). The precipitated purple formazan crystals were directly proportional to the number of metabolically active viable cells. The cell viability was then calculated as: Cell viability (%) = (Sample absorbance/Control absorbance) × 100. Data were expressed as mean of cell viability ± standard error of the mean from three to four independent experiments performed in triplicate.

Series [5] concerns M. smegmatis within RAW 264.7 macrophages. As to the kind of experiment: Preventive effects (pre-incubation) in M. smegmatis-infected RAW 264.7 cells (CFU). The following applies: for reduction of bacterial loads after pre-incubation, M. smegmatis / reduction of CFU counts after re-treatment, M. smegmatis: 15 μM; for reduction of CFU counts after re-treatment, M. smegmatis: pre-incubation and re-treatment, 12 h after infection. The series is classed as cell-based, Mycobacterium smegmatis. How it is done: For the second in vitro cellular infection test with M. smegmatis, RAW 264.7 were seeded in 96-well culture plates at a density of 1 × 10^4 cells/well in DMEM medium (with 10% FBS, without antibiotics) and incubated overnight at 37 °C with 5% CO2. Cells were pre-incubated with CP (15 μM), CA (30 μM), DE (15 μM), and DP (15 μM) for 8 h in DMEM medium. Infection of RAW 264.7 cells with M. smegmatis was performed at a multiplicity of infection of 1:1 for 2 h at 37 °C with 5% CO2 [20]. Infected RAW 264.7 were then lysed with 0.1% Triton–X100, and these suspensions were diluted and plated on LB agar. Remaining wells were then re-treated with the tested substances in DMEM medium. Macrophages were lysed after 12 h, and these suspensions were diluted and plated on LB prior to CFU counting. CFU/well was determined as previously described in the infection experiments using macrophages and M. smegmatis.

Series [6] has as its system M. tuberculosis H37Ra in RAW 264.7 macrophages. Description: Therapeutic potential in M. tuberculosis-infected RAW 264.7 cells (CFU). It counts as cell-based, Mycobacterium tuberculosis. As to conditions: for effect on M. tuberculosis in RAW 264.7: DE 15 μM, CA 30 and 15 μM, 24 h and 48 h. How it is done:
For the infection test with M. tuberculosis H37Ra, RAW 264.7 were seeded in 96-well culture plates at a density of 4 × 10^3 cells/well in DMEM medium (with 10% FBS, without antibiotics) and incubated overnight at 37 °C with 5% CO2 [20]. Infection of RAW 264.7 cells with M. tuberculosis was performed at a multiplicity of infection of 1:1 for 3 h at 37 °C with 5% CO2. The medium with non-internalized bacteria was removed and infected cells were then treated with the tested substances in DMEM:CP (15 µM, 7.5 µM, and 3.25 µM), CA (30 µM), and DE (15 µM) for 24 h and CA (30 µM and 15 µM) and DE (15 µM) for 48 h. Macrophages were lysed after incubations with 0.1% Triton–X100, and these suspensions were diluted and plated on Middlebrook 7H10 plus 10% OADC. Plates were incubated for 4 weeks at 37 °C and data were expressed as log10(CFU/well).

Series [7] has as its system M. tuberculosis H37Ra. Description: M. tuberculosis susceptibility by CFU enumeration. It counts as cell-based, Mycobacterium tuberculosis. As to conditions: H37Ra, 48 h, CFU. As for the experimental part:
Next, CP, CA, and DE were diluted in Middlebrook 7H9 plus 10% OADC for the cellular susceptibility assay with M. tuberculosis H37Ra to yield concentrations up to 15 µM, 30 µM, and 15 µM, respectively. RIF at 0.03 µM was used as a positive control. The final DMSO concentration in all wells was 2.5%. The M. tuberculosis suspension was diluted in 7H9 plus 10% OADC to achieve an optical density of 0.006 at 595 nm, and 100 μL was then added to each well. Plates were covered, sealed with parafilm, and incubated at 37 °C for 48 h. After incubation, aliquots were removed, diluted, and plated in Middlebrook 7H10 agar plus 10% OADC. Plates were incubated at 37 °C for 4 weeks, and CFU were counted. CFU numbers were expressed as log10(CFU/mL).

[8] abbreviates: 8 h pre-incubation, immediately after 2 h of infection.

As usually defined, the IC50 is the concentration that gives 50% inhibition.

Some results are limits rather than exact numbers.

Regarding `COC(=O)/C1=C/c2c([nH]c3ccccc23)/C(C(=O)OC)=C\c2c1[nH]c1ccccc21` [CP, Caulerpin], in series [1], the “effect on A. salina nauplii survival” value is reported as “did not affect nauplii survival rates” and the half-maximal inhibitory concentration (IC50) was above 120 µM. For the same compound, in series [2], the “effect on Vero E6 cell viability” value was “did not significantly reduce cell viability” and the 50% inhibitory concentration (IC50) was above 120 µM. For the same compound, the “inhibitory concentration against M. smegmatis” value in series [3] is reported as “higher than 15 μM”. Further, the “effect on RAW 264.7 cell viability” value in series [4] (24 h incubation, 3.25 to 30 µM) is “affected cell viability at the concentration of 30 μM”. Also, the “effect on RAW 264.7 cell viability” value in series [4] (48 h incubation) was “affected cell viability at the 2 highest concentrations tested, 15 and 30 μM”. Also, the “reduction of bacterial loads after pre-incubation, M. smegmatis” value in series [5] (setting [8]) was 0.360 log10. The “reduction of CFU counts after re-treatment, M. smegmatis” value in series [5] is 0.287 log10. Moreover, the “effect on M. tuberculosis in RAW 264.7, lower concentrations” value in series [6] (7.5 µM and 3.25 µM, 24 h) is given as “no inhibitory effect”. For the same compound, the “decrease in CFU counts, M. tuberculosis in RAW 264.7” value in series [6] (15 μM, 24 h of incubation) came out at 0.250 log10. Besides, the “inhibitory concentration against M. tuberculosis” value in series [7] is on record as “greater than 15 μM”.
On to `O=C(O)C1=Cc2c([nH]c3ccccc23)C(C(=O)O)=Cc2c1[nH]c1ccccc21` [CA, caulerpinic acid], for which the “effect on A. salina nauplii survival” value in series [1] was “did not affect nauplii survival rates”. In addition, the IC50 in series [1] and in series [2] was above 120 µM throughout. In series [2], the “effect on Vero E6 cell viability” value is listed as “did not significantly reduce cell viability”. Further, the “inhibitory concentration against M. smegmatis” value in series [3] is “higher than 30 μM”. Further, the “effect on RAW 264.7 cell viability” value in series [4] (24 h incubation, 3.25 to 30 µM) was “did not affect viability at any of the concentrations tested”; in series [4] (48 h incubation), “did not affect cell viability at any concentration evaluated”. Also, the “decrease of CFU counts after pre-incubation, M. smegmatis” value in series [5] (30 μM, 8 h pre-incubation, immediately after 2 h of infection) was determined as 0.407 log10. Further, the “effect on M. tuberculosis in RAW 264.7” value in series [6] is listed as “neither DE nor CA showed inhibitory effects at either timepoint”. Further, the “inhibitory concentration against M. tuberculosis” value in series [7] is “greater than 30 μM”.
As for `CCOC(=O)/C1=C/c2c([nH]c3ccccc23)/C(C(=O)OCC)=C\c2c1[nH]c1ccccc21` [DE, (6E,13E)-diethyl 5,12-dihydrocycloocta[1,2-b:5,6-b′]diindole-6,13-dicarboxylate], the “effect on A. salina nauplii survival” value in series [1] was “did not affect nauplii survival rates”. The IC50 in series [1] and in series [2] was above 120 µM in each case. Besides, in series [2], the “effect on Vero E6 cell viability” value is “did not significantly reduce cell viability”. Also, the “inhibitory concentration against M. smegmatis” value in series [3] is given as “higher than 15 μM”. Besides, the “effect on RAW 264.7 cell viability” value is recorded as “affected cell viability at the concentration of 30 μM” in series [4] (24 h incubation, 3.25 to 30 µM) and “did not affect cell viability at any concentration evaluated” in series [4] (48 h incubation). Also, in series [5] (setting [8]), the “reduction of bacterial loads after pre-incubation, M. smegmatis” value is listed as 0.402 log10. In addition, the “reduction of CFU counts after re-treatment, M. smegmatis” value in series [5] is 0.182 log10. Further, the “effect on M. tuberculosis in RAW 264.7” value in series [6] is recorded as “neither DE nor CA showed inhibitory effects at either timepoint”. Moreover, in series [7], the “inhibitory concentration against M. tuberculosis” value is “greater than 15 μM”.

(Values after PMC11944515, “Host-Mediated Antimicrobial Effects and NLRP3 Inflammasome Modulation by Caulerpin and Its Derivatives in Macrophage Models of Mycobacterial Infections” (Microorganisms, 2025).)
